Assay results taken from ChEMBL document CHEMBL1126054, “Structure and molecular modeling of GABAA receptor antagonists” (J Med Chem, 1992).
pIC50: −log10 of the molar value.

Legend:
[1] = target: GABA-A receptor; anion channel; assay: Displacement of [3H]muscimol from Gamma-aminobutyric acid A (GABA-A) receptor; type: protein-complex assay, Rattus norvegicus
[2] = (§1) Displacement of [3H]GABA from gamma-aminobutyric-acid A (GABA-A) receptor; set-up: species or system Rattus norvegicus
[3] = target: GABA-A receptor; anion channel; assay: as §1; type: protein-complex assay, Rattus norvegicus

pIC50 [3]	SMILES	other results
–	c1ccc2c(c1)Cc1ccccc1-n1c-2nnc1N1CCNCC1 [PITRAZEPINE]	pIC50 [1]: 6.62
–	O=C1C=C2C=C[C@@H]3C[C@@]2(O1)[C@H]1CCCCN31 [SECURININE]	pIC50 [2]: 4.30
4.80	Oc1onc2c1CCNCC2	–
7.70	CC12CC(=O)C3C(CCC4CC(O)CCC43C)C1CC(=N)N2 (stereo not given)	–

SMILES	pIC50 [3]	other results
COc1cc2c3cc1Oc1cc(ccc1O)C[C@@H]1c4c(cc(OC)c(O)c4Oc4ccc(cc4)C[C@@H]3N(C)CC2)CC[N+]1(C)C	4.24	–
